Results reported in ChEMBL document CHEMBL1201862, “PubChem BioAssay data set” (2004).
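48-hour exposure; five concentrations; linearly interpolated endpoints. GI50 marks 50% less growth.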 Activity calls are given as the source filed them. Rule as the data show it: active = GI50 up to about 1.1 µM and inactive = higher.

What was measured:
Test in all cases: NCI tumour cell line growth inhibition, 48 h
SNB-19 = system: SNB-19
CAKI-1 = system: CAKI-1
SN12C = system: SN12C
UACC-62 = system: UACC-62
NCI-H226 = system: NCI-H226
HOP-62 = system: HOP-62
SW-620 = system: SW-620
OVCAR-8 = system: OVCAR-8
BT-549 = system: BT-549
RXF 393 = system: RXF 393
OVCAR-5 = system: OVCAR-5
PC-3 = system: PC-3
SK-MEL-28 = system: SK-MEL-28
SK-MEL-5 = system: SK-MEL-5
NCI-H522 = system: NCI-H522
DU-145 = system: DU-145
HCC 2998 = system: HCC 2998
SF-268 = system: SF-268
MDA-N = system: MDA-N
IGROV-1 = system: IGROV-1
Hs-578T = system: Hs-578T
MCF7 = system: MCF7
SF-295 = system: SF-295
HL-60 = system: HL-60
HT-29 = system: HT-29
COLO 205 = system: COLO 205
NCI-H23 = system: NCI-H23
NCI-H460 = system: NCI-H460
786-0 = system: 786-0
U-251 = system: U-251
RPMI-8226 = system: RPMI-8226
HCT-15 = system: HCT-15
NCI/ADR-RES = system: NCI/ADR-RES
MDA-MB-435 = system: MDA-MB-435
LOX IMVI = system: LOX IMVI
HCT-116 = system: HCT-116
K562 = system: K562
EKVX = system: EKVX
SK-OV-3 = system: SK-OV-3
SF-539 = system: SF-539
ACHN = system: ACHN
OVCAR-4 = system: OVCAR-4
HOP-92 = system: HOP-92
UACC-257 = system: UACC-257
TK-10 = system: TK-10
CCRF-CEM = system: CCRF-CEM
M14 = system: M14
UO-31 = system: UO-31
MOLT-4 = system: MOLT-4
SK-MEL-2 = system: SK-MEL-2
Malme-3M = system: Malme-3M
MDA-MB-231 = system: MDA-MB-231
OVCAR-3 = system: OVCAR-3
KM12 = system: KM12
A549 = system: A549
A498 = system: A498

Structure (SMILES): NC(=O)N/N=C\c1ccccc1OCc1cccc(COc2ccccc2/C=N\NC(N)=O)n1
- GI50 (SNB-19): 30.8 µM (inactive)
- GI50 (CAKI-1): > 100 µM (inactive)
- GI50 (SN12C): > 100 µM (inactive)
- GI50 (UACC-62): 19.1 µM (inactive)
- GI50 (NCI-H226): 73.6 µM (inactive)
- GI50 (HOP-62): 12.4 µM (inactive)
- GI50 (SW-620): > 100 µM (inactive)
- GI50 (OVCAR-8): 63.1 µM (inactive)
- GI50 (BT-549): 26.9 µM (inactive)
- GI50 (RXF 393): 12.9 µM (inactive)
- GI50 (OVCAR-5): 41.2 µM (inactive)
- GI50 (PC-3): 86.9 µM (inactive)
- GI50 (SK-MEL-28): > 100 µM (inactive)
- GI50 (SK-MEL-5): > 100 µM (inactive)
- GI50 (NCI-H522): 64.4 µM (inactive)
- GI50 (DU-145): 18.8 µM (inactive)
- GI50 (HCC 2998): 21.3 µM (inactive)
- GI50 (SF-268): 21 µM (inactive)
- GI50 (MDA-N): > 100 µM (inactive)
- GI50 (IGROV-1): 37.4 µM (inactive)
- GI50 (Hs-578T): 13.2 µM (inactive)
- GI50 (MCF7): > 100 µM (inactive)
- GI50 (SF-295): 17.1 µM (inactive)
- GI50 (HL-60): > 100 µM (inactive)
- GI50 (HT-29): > 100 µM (inactive)
- GI50 (COLO 205): > 100 µM (inactive)
- GI50 (NCI-H23): 30.1 µM (inactive)
- GI50 (NCI-H460): > 100 µM (inactive)
- GI50 (786-0): 20.5 µM (inactive)
- GI50 (U-251): 5.56 µM (inactive)
- GI50 (RPMI-8226): > 100 µM (inactive)
- GI50 (HCT-15): 64.1 µM
- GI50 (NCI/ADR-RES): 57.4 µM (inactive)
- GI50 (MDA-MB-435): > 100 µM (inactive)
- GI50 (LOX IMVI): 46.1 µM (inactive)
- GI50 (HCT-116): 33.9 µM (inactive)
- GI50 (K562): > 100 µM (inactive)
- GI50 (EKVX): 18 µM (inactive)
- GI50 (SK-OV-3): 19 µM (inactive)
- GI50 (SF-539): 19.3 µM (inactive)
- GI50 (ACHN): 26.2 µM (inactive)
- GI50 (OVCAR-4): > 100 µM (inactive)
- GI50 (HOP-92): 27.2 µM (inactive)
- GI50 (UACC-257): > 100 µM (inactive)
- GI50 (TK-10): 30.7 µM (inactive)
- GI50 (CCRF-CEM): > 100 µM (inactive)
- GI50 (M14): 49.2 µM (inactive)
- GI50 (UO-31): 29.9 µM (inactive)
- GI50 (MOLT-4): > 100 µM (inactive)
- GI50 (SK-MEL-2): 28.8 µM (inactive)
- GI50 (Malme-3M): 72.9 µM (inactive)
- GI50 (MDA-MB-231): 14.6 µM (inactive)
- GI50 (OVCAR-3): > 100 µM (inactive)
- GI50 (KM12): > 100 µM (inactive)
- GI50 (A549): > 100 µM (inactive)
- GI50 (A498): 98.6 µM (inactive)
